From PubChem BioAssay (NCI)
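GI50 = concentration required for 50% inhibition of growth. TGI: total growth inhibition.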

Assays:
Assay in all cases: NCI tumour cell line growth inhibition, 384-well format
[1] = system: 786-0 renal
[2] = system: A498 renal
[3] = system: A549 NSCLC
[4] = system: ACHN renal
[5] = system: BT-549 breast
[6] = system: CAKI-1 renal
[7] = system: CCRF-CEM leukemia
[8] = system: COLO 205 colon
[9] = system: DU-145 prostate
[10] = system: EKVX NSCLC
[11] = system: HCC-2998 colon
[12] = system: HCT-116 colon
[13] = system: HCT-15 colon
[14] = system: HL-60(TB) leukemia
[15] = system: HOP-62 NSCLC
[16] = system: HOP-92 NSCLC
[17] = system: HS 578T breast
[18] = system: HT29 colon
[19] = system: IGROV1 ovarian
[20] = system: K-562 leukemia
[21] = system: KM12 colon
[22] = system: LOX IMVI melanoma
[23] = system: M14 melanoma
[24] = system: MALME-3M melanoma
[25] = system: MCF7 breast
[26] = system: MDA-MB-231 breast
[27] = system: MDA-MB-435 melanoma
[28] = system: MDA-MB-468 breast
[29] = system: MOLT-4 leukemia
[30] = system: NCI-H226 lung
[31] = system: NCI-H23 lung
[32] = system: NCI-H322M lung
[33] = system: NCI-H460 NSCLC
[34] = system: NCI-H522 lung
[35] = system: OVCAR-3 ovarian
[36] = system: OVCAR-4 ovarian
[37] = system: OVCAR-5 ovarian
[38] = system: OVCAR-8 ovarian
[39] = system: PC-3 prostate
[40] = system: RPMI-8226 leukemia
[41] = system: RXF 393 renal
[42] = system: SF-268 CNS
[43] = system: SF-295 CNS
[44] = system: SF-539 CNS
[45] = system: SK-MEL-2 melanoma
[46] = system: SK-MEL-28 melanoma
[47] = system: SK-MEL-5 melanoma
[48] = system: SK-OV-3 ovarian
[49] = system: SN12C renal
[50] = system: SNB-19 CNS
[51] = system: SNB-75 CNS
[52] = system: SR leukemia
[53] = system: SW-620 colon
[54] = system: T-47D breast
[55] = system: TK-10 renal
[56] = system: U251 glioblastoma
[57] = system: UACC-257 melanoma
[58] = system: UACC-62 melanoma
[59] = system: UO-31 renal

In the case of `COc1cc([C@@H]2c3cc4c(cc3[C@@H](OC3OC5COC(C)OC5C(O)C3O)[C@H]3COC(=O)[C@H]23)OCO4)cc(OC)c1O` (stereo not given in full), the GI50 [1] is reported as 1590 nM, the TGI [1] is reported as 7560 nM and the GI50 [2] is reported as 2000 nM. For the same molecule, the TGI [2] was 19000 nM, the GI50 [3] was 1220 nM and the TGI [3] was greater than 47000 nM. The GI50 [4] was 1800 nM, the TGI [4] was 10300 nM and the GI50 [5] was 877 nM. It also gave a TGI [5] of 4740 nM, a GI50 [6] of 1610 nM and a TGI [6] greater than 41000 nM. It also gave a GI50 [7] of 63.8 nM, a TGI [7] of 200 nM and a GI50 [8] of 433 nM. For the same molecule, the TGI [8] was 10600 nM, the GI50 [9] was 1520 nM and the TGI [9] was 5250 nM. For the same molecule, the GI50 [10] was 11300 nM, the TGI [10] was greater than 43600 nM and the GI50 [11] was 1820 nM. For the same molecule, the TGI [11] was 4150 nM, the GI50 [12] was 560 nM and the TGI [12] was 25900 nM. For the same molecule, the GI50 [13] was 2010 nM, the TGI [13] was 13600 nM and the GI50 [14] was 21.5 nM. The TGI [14] was 49.2 nM, the GI50 [15] was 747 nM and the TGI [15] was 2510 nM. For the same molecule, the GI50 [16] was 2460 nM, the TGI [16] was greater than 43100 nM and the GI50 [17] was 463 nM. The TGI [17] was 4820 nM, the GI50 [18] was 2280 nM and the TGI [18] was 7300 nM. It also gave a GI50 [19] of 4270 nM, a TGI [19] greater than 37600 nM and a GI50 [20] of 910 nM. It also gave a TGI [20] of 6360 nM, a GI50 [21] of 1680 nM and a TGI [21] of 7910 nM. For the same molecule, the GI50 [22] was 1660 nM, the TGI [22] was 15900 nM and the GI50 [23] was 1320 nM. It also gave a TGI [23] of 6640 nM, a GI50 [24] of 6150 nM and a TGI [24] of 43500 nM. The GI50 [25] was 716 nM, the GI50 [26] was 1880 nM and the TGI [26] was 4620 nM. It also gave a GI50 [27] of 3960 nM, a TGI [27] of 20400 nM and a GI50 [28] of 1130 nM. It also gave a TGI [28] of 2780 nM, a GI50 [29] of 17.6 nM and a TGI [29] of 38.9 nM. It also gave a GI50 [30] of 2480 nM, a TGI [30] greater than 37200 nM and a GI50 [31] of 809 nM. For the same molecule, the TGI [31] was 4370 nM, the GI50 [32] was 29100 nM and the TGI [32] was greater than 96700 nM. The GI50 [33] was 91.5 nM, the TGI [33] was 7610 nM and the GI50 [34] was 1210 nM. For the same molecule, the TGI [34] was 7350 nM, the GI50 [35] was 2640 nM and the TGI [35] was 13800 nM. The GI50 [36] was 39900 nM, the GI50 [37] was 3370 nM and the TGI [37] was 13800 nM. The GI50 [38] was 1530 nM, the TGI [38] was 10300 nM and the GI50 [39] was 20400 nM. The GI50 [40] was 36.1 nM, the TGI [40] was 564 nM and the GI50 [41] was 9620 nM. For the same molecule, the TGI [41] was 38300 nM, the GI50 [42] was 1360 nM and the TGI [42] was 6870 nM. The GI50 [43] was 851 nM, the TGI [43] was 3010 nM and the GI50 [44] was 976 nM. It also gave a TGI [44] of 4380 nM, a GI50 [45] of 4150 nM and a TGI [45] of 8270 nM. For the same molecule, the GI50 [46] was 2610 nM, the TGI [46] was 11400 nM and the GI50 [47] was 370 nM. For the same molecule, the TGI [47] was 1710 nM, the GI50 [48] was 2940 nM and the TGI [48] was 14600 nM. The GI50 [49] was 1280 nM, the TGI [49] was 5720 nM and the GI50 [50] was 1080 nM. It also gave a TGI [50] greater than 23100 nM, a GI50 [51] of 1360 nM and a TGI [51] of 6630 nM. The GI50 [52] was 16.1 nM, the TGI [52] was 49.4 nM and the GI50 [53] was 441 nM. For the same molecule, the TGI [53] was 5580 nM, the GI50 [54] was 1040 nM and the TGI [54] was greater than 95300 nM. It also gave a GI50 [55] of 2880 nM, a TGI [55] of 11300 nM and a GI50 [56] of 533 nM. The TGI [56] was 5050 nM, the GI50 [57] was 16600 nM and the TGI [57] was greater than 75900 nM. It also gave a GI50 [58] of 1330 nM, a TGI [58] of 16600 nM and a GI50 [59] of 22200 nM. It also gave a TGI [59] greater than 77900 nM.
